Where two headings read alike, the source gives them in different places. Each block holds one compound with its values, some of them ahead of it.
Key:
[1] = tested on: P. falciparum 3D7-infected erythrocytes; assay: Plasmodium falciparum growth inhibition assay (SYBR Green I, flow cytometry), drug-sensitive strain; format: cell-based; details: Plasmodium falciparum, 3D7, Erythrocyte, 48 h incubation
Procedure: (§1) Plates were incubated under standard P. falciparum culture conditions for 48 h. […] Fixed parasitized red blood cells (RBC) were stored at 4 °C in the dark until flow cytometry analysis. Parasite growth was assessed by flow cytometry on a BD FACS Cantoll (BD Biosciences) or a Attune™ NxT Flow Cytometer (Invitrogen). Cell doublets were excluded from the analysis using a forward scatter (FSC)-width versus FSC-area dot plot. Infected and uninfected erythrocytes were gated on the basis of their FSC and side scatter (SSC) signals. Fluorescence analysis (Green fluorescence FITC) was performed using BD FACSDiva software (BD Biosciences) on a total of 200,000 acquired events. […] Fluorescence of non-infected RBC was adjusted to plot between 10° and 10^2. Results are expressed as the percentage of growth inhibition.
(§2) All IC50 values were calculated using log-linear interpolation (www.antimalarial-icestimator.net), with mean values (± SD) determined over at least two independent experiments.

[2] = tested on: multidrug-resistant P. falciparum line Dd2; assay: Plasmodium falciparum growth inhibition assay (SYBR Green I, flow cytometry), multidrug-resistant line; format: cell-based; details: line resistant to CQ, PYR and mefloquine, mean ± SD
Procedure: as §1, §2

[3] = tested on: P. berghei ANKA parasites; assay: Peters 4-day suppressive test, oral efficacy in P. berghei-infected mice; format: in vivo, Plasmodium berghei; details: for activity in vivo against Plasmodium berghei: Experiment 2 (Fig. 2), 10mg/kg orally twice a day on days 0,1,2,3; for activity in vivo against Plasmodium berghei / number of mice showing blood parasites / parasitemia (mean ± sd): Balb/C mice; for parasites in treated mice, follow-up: until the end of the experiments; for parasite clearance after oral administration: 10 mg/kg
Procedure: Compounds powder was dissolved in DMSO and sonicated for 10 min. Appropriate volume of 50%W/v HPβCD was added dropwise under gentle swirling. After 10 min sonication, DPBS was added dropwise under gentle swirling and the mixture was sonicated again for 10 min. After checking the pH (5.5 - 7), the solution was filtered (0.22µm) and conserved at room temperature for max 2 days. Final concentration of compounds was 2.5 mg/mL, 1 mg/mL or 0.1 mg/mL for mice treatment with 25 mg/kg, 10 mg/kg or 1mg/kg doses.
10 weeks-old Balb/C male mice were purchased from Janvier Labs.
P. berghei ANKA parasites stabilates conserved in liquid nitrogen were thawed and injected intraperitoneally (ip) into 2-3 mice (10^6 infected red blood cells (RBC) / mouse). When parasitemia reached 3-5%, mice were bled and groups of six BALB/c male mice were infected with 10^6 P. berghei ANKA parasites (day 0), and treated per os (p.o.) twice a day on days 0, 1, 2 and 3. […] On day 4 post infection (p.i.), the peripheral blood parasitemia of all mice was evaluated via microscopic examination of Giemsa-stained thin blood smears. Parasitemia was then followed for two weeks.

HEK293 cells = assay: Cytotoxicity on HEK293 cells (Alamar Blue); format: cell-based, Human; details: ratio of the minimum inhibitory concentration of HEK293 cells (50 µM) to the IC50 of Pf3D7
Procedure: Cells were seeded out at 1.5 × 10^3 cells per well in a 96-well cell culture plate (TPP, Switzerland).
After 24 h, Alamar Blue reagent (Invitrogen, CA) was added according to the manufacturer's instructions and incubated again for 21 h before samples were analyzed.

[4] = mean ± SD, n ≥ 2, read-out: Pf3D7 IC50
[5] = Plasmodium falciparum, DD2, 48 h, n ≥ 2, read-out: PfDd2 IC50
[6] = Experiment 3, 1 mg/kg p.o. twice a day on days 0-3, day 4 p.i.
[7] = Experiment 3, 1 mg/kg p.o. twice a day on days 0-3, day 5 p.i.
[8] = Experiment 3, 1 mg/kg p.o. twice a day on days 0-3, day 6 p.i.
[9] = Experiment 3, 1 mg/kg p.o. twice a day on days 0-3, day 7 p.i.
[10] = Experiment 3, 1 mg/kg p.o. twice a day on days 0-3, day 8 p.i.
[11] = Experiment 3, 1 mg/kg p.o. twice a day on days 0-3, day 10 p.i.
[12] = Experiments 1 and 2, 10 mg/kg p.o. twice a day on days 0-3, day 4 p.i.
[13] = Experiments 1 and 2, 10 mg/kg p.o. twice a day on days 0-3

- IC50 [1, 4]: 0.081 ± 0.043 nM
- IC50 ([1]; read-out: IC50 (Pf3D7)): < 0.1 nM
SMILES: CCc1nc(N)nc(N)c1OCCCOc1ccccc1/C=C/C(=O)NO.Cl [13·HCl, (E)-3-{2-[3-(2,4-Diamino-6-ethylpyrimidin-5-yloxy)propoxy]phenyl}-N-hydroxyacrylamide hydrochloride]
- IC50 [2, 5]: 11.1 ± 7.2 nM
- activity in vivo against Plasmodium berghei [3]: active in vivo
- number of mice showing blood parasites [3, 6]: 2/6
- parasitemia (mean ± sd) ([3]; Experiment 3, 1 mg/kg p.o. twice a day on days 0-3, day 4 p.i., hydrochloride, 1 mg/kg): 0,12 ± 0,18%
- parasitemia (mean ± sd) ([3]; Experiment 3, 1 mg/kg p.o. twice a day on days 0-3, day 4 p.i., listed as 13, hydrochloride, 1 mg/kg): 0.12%
- number of mice showing blood parasites [3, 7]: 3/6
- parasitemia (mean ± sd) [3, 7]: 0,55 ± 0,83%
- number of mice showing blood parasites [3, 8]: 4/6
- parasitemia (mean ± sd) [3, 8]: 2,05 ± 2,37%
- number of mice showing blood parasites [3, 9]: 5/6
- parasitemia (mean ± sd) [3, 9]: 2,39 ± 2,22%
- number of mice showing blood parasites [3, 10]: 5/6
- parasitemia (mean ± sd) [3, 10]: 3,94 ± 3,06%
- number of mice showing blood parasites [3, 11]: 5/5
- parasitemia (mean ± sd) [3, 11]: 6,02 ± 2,66%
- parasites in treated mice [3, 12]: undetectable
- parasites in treated mice, follow-up [3, 13]: remained undetectable
- parasite clearance after oral administration [3]: achieved parasite clearance

- IC50 [1, 4]: 4.84 ± 1.05 nM
SMILES: CCc1nc(N)nc(N)c1OCCCOc1cccc(C(=O)NOCc2ccccc2)c1 [Compound 12, N-(Benzyloxy)-3-[3-(2,4-diamino-6-ethylpyrimidin-5-yloxy)propoxy]benzamide]
- Selectivity Index HEK293 / Pf3D7 (HEK293 cells): > 1.0E+07

- IC50 [1, 4]: 11.4 ± 7.9 nM
SMILES: CCc1nc(N)nc(N)c1OCCOc1ccccc1CCC(=O)NO.Cl [2·HCl, 3-(2-[2-(2,4-Diamino-6-ethylpyrimidin-5-yloxy)ethoxy]phenyl)-N-hydroxypropanamide hydrochloride]
- Selectivity Index HEK293 / Pf3D7 (HEK293 cells): > 4.4E+06

- IC50 [1, 4]: 0.845 ± 0.108 nM
SMILES: CCc1nc(N)nc(N)c1OCCCOc1cccc(C(=O)NO)c1.Cl [8·HCl, 3-[3-(2,4-Diamino-6-ethylpyrimidin-5-yloxy)propoxy]-N-hydroxybenzamide hydrochloride]
- IC50 [2, 5]: 138 nM
- IC50 ([2]; 48 h, n ≥ 2, listed as 8, hydrochloride, read-out: PfDd2 IC50): 138 ± 25.4 nM
- activity in vivo against Plasmodium berghei [3]: active in vivo
- ranking of activity against P. berghei infection ([3]; Experiment 3, 1 mg/kg p.o. twice a day on days 0-3): most active
- parasites in treated mice [3, 6]: undetectable
- number of mice showing blood parasites [3, 6]: 0/6
- parasitemia (mean ± sd) [3, 6]: 0%
- number of mice showing blood parasites [3, 7]: 0/6
- parasitemia (mean ± sd) [3, 7]: 0%
- number of mice showing blood parasites [3, 8]: 2/6
- parasitemia (mean ± sd) [3, 8]: 0,08 ± 0,13%
- number of mice showing blood parasites [3, 9]: 2/6
- parasitemia (mean ± sd) [3, 9]: 0,32 ± 0,49%
- number of mice showing blood parasites [3, 10]: 3/6
- parasitemia (mean ± sd) [3, 10]: 1,37 ± 2,07%
- number of mice showing blood parasites [3, 11]: 4/6
- parasitemia (mean ± sd) [3, 11]: 2,41 ± 2,84%
- parasites in treated mice [3, 12]: undetectable
- parasites in treated mice, follow-up [3, 13]: remained undetectable
- parasite clearance after oral administration [3]: achieved parasite clearance

— patent EP4438596A1, “DIAMINOPYRIMIDINE DERIVATIVES AS HDAC AND DHFR DUAL-TARGETING INHIBITORS AND USE THEREOF IN PREVENTING AND TREATING MALARIA” (Université de Lille, priority 2023, dated 2024)
